Laboratory results reported in US7794795B2, “Hybrid anti-fouling coating compositions and methods for preventing the fouling of surfaces subjected to a marine environment” (The Research Foundation of State University of New York, priority 2003, dated 2010).

Experiments:
[1] = Thiol peroxidase activity: oxidation of PhSH with H2O2, stopped-flow; details: for k0, initial linear increase in absorbance: PhSH 1 × 10^−3 M, H2O2 3.75 × 10^−3 M, catalyst 1 × 10^−5 M, MeOH (5% CH2Cl2; 46% for 22), 276.8 K, 305 nm; for v0 (rel): relative to 23a = 1; for v0, initial rate of oxidation of PhSH: same conditions, k0 corrected for the uncatalyzed reaction
Protocol: (§1) All stopped-flow experiments were performed on a SX18 Stopped-Flow Spectrometer (Applied Photophysics, Leatherhead, UK). The sample-handling unit was fitted with two drive syringes that are mounted inside a thermostatted-bath compartment, which allowed for variable temperature experimentation. The optical detection cell was set up in the 2-mm pathlength. First- and second-order curve fitting and rate constants used a Marquardt algorithm (Marquardt, J. Soc. Indust Appl. Mathematics, 11:431 et al. (1963), which is hereby incorporated by reference in its entirety) based on the routine Curfit (Bevington, Data Reduction and Error Analysis for the Physical Sciences, McGraw-Hill, New York (1969), which is hereby incorporated by reference in its entirety).
Stock solutions of 2.0×10^−3 M of catalyst in CH2Cl2 and 5.0×10^−2 M PhSH in CH2Cl2 were prepared. These were diluted with MeOH to give a 5% CH2Cl21MeOH solution of 2.0×10^−5 M telluride and 2.0×10^−3 PhSH. A stock solution of 7.50×10^−3 M H2O2 in MeOH was prepared. These two solutions were mixed in the stopped-flow spectrometer to give concentrations of 1.0×10^−5 M telluride, 1.0×10^−3 M PhSH, and 3.75×10^−3 M H2O2 and the increase in absorbance at 305 nm was measured. The concentration of H2O2 in the stock solution was determined from the absorbance at 240 nm (E=43.6 cm^−1 M^−1) (Riley et al., Endocrinology, 128:1749 et al. (1991); Zhao et al., Biochemistry, 40:10832 et al. (2001), which are hereby incorporated by reference in their entirety). The values in Table 1 are the average of 7-10 independent runs (± standard deviation).
In earlier work with dendrimeric organotelluride catalysts for the oxidation of halide salts with H2O2 (Francavilla et al., J. Am. Chem. Soc., 123:57 et al. (2001), which is hereby incorporated by reference in its entirety), a two-phase system of CH2Cl2 and pH-6 buffer was employed, which kept the catalysts and substrate in solution. In order to evaluate the catalysts in a homogeneous system, the method of Tomoda et al. (Iwaoka et al., J. Am. Chem. Soc., 116:2557 et al. (1994); Mugesh et al., J. Am. Chem. Soc., 123:839 et al. (2001), which are hereby incorporated by reference in their entirety) was employed to measure thiol peroxidase activity. In this procedure, thiophenol (PhSH) is oxidized to diphenyl disulfide (PhSSPh) using H2O2 as the oxidant. Catalytic activity was determined by the initial rates for the oxidation of PhSH (1.0×10^−3 M) with H2O2 (3.75×10^−3 M) in MeOH in the presence of a catalyst at a standard concentration of 1.0×10^−5 M.
A 5% CH2Cl2/MeOH solution of catalyst (9, 15, 20, 23, or 24 at 2.0×10^−5M) and PhSH (2.0×10^−3 M) was mixed with an equal volume of a 5% CH2Cl21MeOH solution of H2O2 (7.5×10^−3 M) in a stopped-flow spectrophotometer at 276.8±0.4 K to give final concentrations of […] catalyst, 1.0×10^−3 M PhSH, and 3.75×10^−3M H2O2. The rate of appearance of PhSSPh, with a molar extinction coefficient, ε, of […] at 305 nm (Mugesh et al., J. Am. Chem. Soc., 123:839 et al. (2001), which is hereby incorporated by reference in its entirety), was monitored at 305 nm. The 5% CH2Cl2 was added to keep the tellurides/oxidized tellurides in solution during the course of the reaction. For hexatellurides 22, the percentage of CH2Cl2 was increased to 46% (by volume) in both solutions to keep the dendrimers in solution during the time-course of the analysis.
A slow, uncatalyzed background reaction was observed upon mixing the two solutions in the stopped-flow spectrometer without added catalyst. Values of k0 were corrected for the uncatalyzed background reaction and converted to initial velocities, ν0, in units of […] min^−1 (Table 1). Values of ν0 as a function of the number of catalytic groups is plotted in FIG. 20.

[2] = Oxidation of monotellurides with H2O2, stopped-flow, pseudo first-order; details: for observed rate constant for oxidation: 1.03×10^−3 M telluride, 1.03×10^−2 M H2O2, 276.8 K, 5% CH2Cl2/MeOH; for second-order rate constant for oxidation: same conditions
Protocol: as §1
Stock solutions of 2.06×10^−3M telluride and 2.06×10^−2 M H2O2 in 5% CH2Cl2/MeOH were prepared. These two solutions were mixed in the stopped-flow spectrometer to give concentrations of 1.03×10^−3M telluride and 1.03×10^−2 M H2O2 and the increase in absorbance at 325 nm for 23a, 350 nm for 23b, and 352 nm for 24 was measured as a function of time for 7-10 independent runs (1 standard deviation).
The rates of oxidation of monotellurides 23 and 24 were followed in the stopped-flow spectrometer under pseudo first-order conditions. Final concentrations of 1.03×10^−3 M telluride and 1.03×10^−2 M H2O2 at 276.8±0.4 K gave observed rate constants for oxidation of (1.10±0.01)×10^−1 s^−1 for 23a, (3.62±0.02)×10^−1 s^−1 for 23b, and (4.5±0.4)×10^−1 for 24, which correspond to second-order rate constants of 10.7±0.1 M^−1 s^−1 for 23a, 35.1±0.2 M^−1 s^−1 for 23b, and 44±4 M^−1 s^−1 for 24.

Row | Compound | k0, initial linear increase in absorbance [1] | v0 (rel) [1] | v0, initial rate of oxidation of PhSH [1] | observed rate constant for oxidation [2] | second-order rate constant for oxidation [2]
1 | CN(C)c1ccc([Te]CCCOc2cc(CO)cc(OCCC[Te]c3ccc(N(C)C)cc3)c2)cc1 [9b, 3,5-Bis[3-(4-dimethylaminophenyltelluro)propyloxy]benzyl Alcohol] | (1.69 ± 0.05) × 10^−4 ΔA s^−1 | 3.3 | (4.0 ± 0.1) × 10^1 μM min^−1 | – | –
2 | CN(C)c1ccc([Te]CCCOc2cc(CO)cc(OCCC[Te]c3ccc(N(C)C)cc3)c2OCCC[Te]c2ccc(N(C)C)cc2)cc1 [15b, 3,4,5-Tris[3-(4-dimethylaminophenyltelluro)propyloxy]benzyl Alcohol] | (3.15 ± 0.03) × 10^−4 ΔA s^−1 | 6.3 | (7.49 ± 0.07) × 10^1 μM min^−1 | – | –
3 | CCCCCC[Te]CCCOc1cc(COc2cc(CO)cc(OCc3cc(OCCC[Te]CCCCCC)cc(OCCC[Te]CCCCCC)c3)c2)cc(OCCC[Te]CCCCCC)c1 [20c, 3,5-Bis(3,5-bis[3-(n-hexyltelluro)propyloxy]benzyloxy)benzyl Alcohol] | (5.47 ± 0.07) × 10^−4 ΔA s^−1 | 11 | (1.31 ± 0.01) × 10^2 μM min^−1 | – | –
4 | CN(C)c1ccc(CCCOc2cc(COc3ccc(C(C)(c4ccc(OCc5cc(OCCCc6ccc(N(C)C)cc6)cc(OCCCc6ccc(N(C)C)cc6)c5)cc4)c4ccc(OCc5cc(OCCCc6ccc(N(C)C)cc6)cc(OCCCc6ccc(N(C)C)cc6)c5)cc4)cc3)cc(OCCCc3ccc(N(C)C)cc3)c2)cc1 [22b, 1,1,1-Tris[4-(3,5-bis[3-(4-N,N-dimethylaminophenyl)propyloxy]benzyloxy)phenyl]ethane] | (5.6 ± 0.1) × 10^−4 ΔA s^−1 | 11 | (1.34 ± 0.02) × 10^2 μM min^−1 | – | –
5 | CCCCCC[Te]CCCOc1cc(COc2ccc(C(C)(c3ccc(OCc4cc(OCCC[Te]CCCCCC)cc(OCCC[Te]CCCCCC)c4)cc3)c3ccc(OCc4cc(OCCC[Te]CCCCCC)cc(OCCC[Te]CCCCCC)c4)cc3)cc2)cc(OCCC[Te]CCCCCC)c1 [22c, 1,1,1-Tris[4-(3,5-bis[3-(n-hexyltelluro)propyloxy]benzyloxy)phenyl]-ethane] | (1.30 ± 0.01) × 10^−3 ΔA s^−1 | 26 | – | – | –
6 | OCc1cc(OCCC[Te]c2ccccc2)cc(OCCC[Te]c2ccccc2)c1 [compound 9a, 3,5-Bis[3-(phenyltelluro)propyloxy]benzyl Alcohol] | (8.8 ± 0.5) × 10^−5 ΔA s^−1 | 1.7 | (2.0 ± 0.1) × 10^1 μM min^−1 | – | –
7 | CCCCCC[Te]CCCOc1cc(CO)cc(OCCC[Te]CCCCCC)c1 [compound 9c, 3,5-Bis[3-(n-hexyltelluro)propyloxy]benzyl Alcohol] | (2.90 ± 0.06) × 10^−4- ΔA s^−1 | 5.8 | (6.9 ± 0.1) × 10^1 μM min^−1 | – | –
8 | OCc1cc(OCCC[Te]c2ccccc2)c(OCCC[Te]c2ccccc2)c(OCCC[Te]c2ccccc2)c1 [compound 15a, 3,4,5-Tris[3-(phenyltelluro)propyloxy]benzyl Alcohol] | (1.14 ± 0.02) × 10^−4 ΔA s^−1 | 2.2 | (2.66 ± 0.05) × 10^1 μM min^−1 | – | –
9 | CCCCCC[Te]CCCOc1cc(CO)cc(OCCC[Te]CCCCCC)c1OCCC[Te]CCCCCC [compound 15c, 3,4,5-Tris[3-(n-hexyltelluro)propyloxy]benzyl Alcohol] | (4.00 ± 0.05) × 10^−4 ΔA s^−1 | 7.9 | (9.5 ± 0.1) × 10^1 μM min^−1 | – | –
10 | OCc1cc(OCc2cc(OCCC[Te]c3ccccc3)cc(OCCC[Te]c3ccccc3)c2)cc(OCc2cc(OCCC[Te]c3ccccc3)cc(OCCC[Te]c3ccccc3)c2)c1 [compound 20a, 3,5-Bis(3,5-bis[3-(phenyltelluro)propyloxy]benzyloxy)benzyl Alcohol] | (1.81 ± 0.05) × 10^−4 ΔA s^−1 | 3.6 | (4.3 ± 0.1) × 10^1 μM min^−1 | – | –
11 | CN(C)c1ccc([Te]CCCOc2cc(COc3cc(CO)cc(OCc4cc(OCCC[Te]c5ccc(N(C)C)cc5)cc(OCCC[Te]c5ccc(N(C)C)cc5)c4)c3)cc(OCCC[Te]c3ccc(N(C)C)cc3)c2)cc1 [compound 20b, 3,5-Bis(3,5-bis[3-(4-dimethylaminophenyltelluro)propyloxy]benzyloxy)benzyl Alcohol] | (3.13 ± 0.05) × 10^−4 ΔA s^−1 | 6.3 | (7.4 ± 0.1) × 10^1 μM min^−1 | – | –
12 | c1ccc(OCCC[Te]c2ccccc2)cc1 [compound 23a, 1-Phenoxy-3-(phenyltelluro)propane] | (5.3 ± 0.4) × 10^−5 ΔA s^−1 | 1 | – | (1.10±0.01)×10^−1 s^−1 | 10.7 ± 0.1 M⁻¹ s⁻¹
13 | CN(C)c1ccc([Te]CCCOc2ccccc2)cc1 [compound 23b, 1-phenoxy-3-[4-(N,N-dimethylamino)phenyltelluro]propane] | (1.06 ± 0.05) × 10^−4 ΔA s^−1 | 2.1 | (2.5 ± 0.1) × 10^1 μM min^−1 | (3.62±0.02)×10^−1 s^−1 | 35.1 ± 0.2 M⁻¹ s⁻¹
14 | CCCCCC[Te]CCCCCC [compound 24, Di-n-hexyltelluride, reference compound] | (1.53 ± 0.09) × 10^−4 ΔA s^−1 | 3.0 | (3.6 ± 0.2) × 10^1 μM min^−1 | (4.5±0.4)×10^−1 s^−1 | 44 ± 4 M⁻¹ s⁻¹
